Experimental data taken from PubChem BioAssay AID624091 (Broad Institute, 2012).
pIC50: −log10 of the molar value. Activity calls are given as the source filed them. How the calls were made is not given here.

What was measured:
Test in all cases: GSK3 and CDK kinase inhibitor potency, dose response, selectivity assay for GSK3beta inhibitor project, biochemical, selected compounds, dry powder samples (AID 624091)
[1] = molecular target: Cyclin-dependent kinase 1 (Homo sapiens) (UniProt P06493); settings: Carna mobility shift kinase assay, LabChip, panel; CDC2/CycB1
[2] = molecular target: Cyclin-dependent kinase 2 (Homo sapiens) (UniProt P24941); settings: Carna mobility shift kinase assay, LabChip, panel
[3] = molecular target: Glycogen synthase kinase-3 alpha (Homo sapiens) (UniProt P49840); settings: Carna mobility shift kinase assay, LabChip, panel; GSK3a
[4] = molecular target: Glycogen synthase kinase-3 beta (Homo sapiens) (UniProt P49841); settings: Carna mobility shift kinase assay, LabChip, panel; GSK3b
[5] = molecular target: Cyclin-dependent kinase 5 (Homo sapiens) (UniProt Q00535); settings: Carna mobility shift kinase assay, LabChip, panel; CDK5/p25
Cyclin-dependent kinase 5 (Homo sapiens), sequence (Q00535 whole entry, looked up): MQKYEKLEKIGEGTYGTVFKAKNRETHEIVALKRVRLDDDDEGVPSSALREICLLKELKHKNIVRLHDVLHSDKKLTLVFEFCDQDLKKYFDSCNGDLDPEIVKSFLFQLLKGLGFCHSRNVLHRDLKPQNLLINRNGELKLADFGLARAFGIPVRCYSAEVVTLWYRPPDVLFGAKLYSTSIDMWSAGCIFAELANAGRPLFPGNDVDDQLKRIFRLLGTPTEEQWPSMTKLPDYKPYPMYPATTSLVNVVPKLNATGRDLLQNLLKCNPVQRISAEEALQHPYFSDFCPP

Cyclin-dependent kinase 1 (Homo sapiens), sequence (P06493 whole entry, looked up): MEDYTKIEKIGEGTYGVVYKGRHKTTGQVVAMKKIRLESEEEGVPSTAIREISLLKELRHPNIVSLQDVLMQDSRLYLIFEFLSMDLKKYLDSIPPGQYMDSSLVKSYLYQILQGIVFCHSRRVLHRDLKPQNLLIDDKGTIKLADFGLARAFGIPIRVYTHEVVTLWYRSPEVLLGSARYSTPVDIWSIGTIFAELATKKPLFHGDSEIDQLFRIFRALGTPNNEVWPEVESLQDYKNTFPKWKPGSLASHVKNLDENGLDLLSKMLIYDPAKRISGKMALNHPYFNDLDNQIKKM
Glycogen synthase kinase-3 alpha (Homo sapiens), sequence (P49840 whole entry, looked up): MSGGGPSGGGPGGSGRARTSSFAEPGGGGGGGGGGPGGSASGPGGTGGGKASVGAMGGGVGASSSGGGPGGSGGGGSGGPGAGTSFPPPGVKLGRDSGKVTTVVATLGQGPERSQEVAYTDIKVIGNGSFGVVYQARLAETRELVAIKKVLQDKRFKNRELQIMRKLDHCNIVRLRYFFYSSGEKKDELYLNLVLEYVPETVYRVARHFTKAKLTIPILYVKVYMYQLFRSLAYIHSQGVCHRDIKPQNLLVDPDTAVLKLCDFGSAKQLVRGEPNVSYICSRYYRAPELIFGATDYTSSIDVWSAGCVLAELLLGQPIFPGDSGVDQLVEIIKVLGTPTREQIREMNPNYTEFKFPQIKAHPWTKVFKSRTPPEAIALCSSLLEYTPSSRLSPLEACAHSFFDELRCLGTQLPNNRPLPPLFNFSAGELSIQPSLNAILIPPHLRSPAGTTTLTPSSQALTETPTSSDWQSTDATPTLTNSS
Glycogen synthase kinase-3 beta (Homo sapiens), sequence (P49841 whole entry, looked up): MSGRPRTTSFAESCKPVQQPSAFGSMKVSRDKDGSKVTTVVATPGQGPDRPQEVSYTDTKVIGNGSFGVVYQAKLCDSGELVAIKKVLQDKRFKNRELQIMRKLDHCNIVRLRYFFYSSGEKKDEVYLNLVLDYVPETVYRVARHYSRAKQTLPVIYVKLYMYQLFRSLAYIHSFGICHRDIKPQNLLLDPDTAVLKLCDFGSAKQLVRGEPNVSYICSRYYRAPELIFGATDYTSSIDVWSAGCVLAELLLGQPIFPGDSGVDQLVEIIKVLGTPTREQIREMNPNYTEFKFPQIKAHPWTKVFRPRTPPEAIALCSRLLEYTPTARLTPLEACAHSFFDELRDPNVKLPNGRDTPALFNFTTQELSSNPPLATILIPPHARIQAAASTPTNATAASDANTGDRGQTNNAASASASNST

Row | SMILES | IC50 [1] | IC50 ([2]; CDK2/CycA2) | IC50 ([2]; CDK2/CycE1) | pIC50 [3] | pIC50 [4] | pIC50 [1] | pIC50 ([2]; CDK2/CycA2) | pIC50 ([2]; CDK2/CycE1) | pIC50 [5] | IC50 [5] | IC50 [3] | IC50 [4]
1 | COc1ccccc1C1C2=C(CC(C)(C)CC2=O)Nc2n[nH]c(C(F)(F)F)c21 (stereo not drawn) | > 10000 nM (inactive) | inactive | inactive | 7.63 | 7.64 |  |  |  |  |  |  | 
2 | COc1ccccc1[C@H]1C2=C(CC(C)(C)CC2=O)Nc2n[nH]c(C(F)(F)F)c21 | > 10000 nM (inactive) | > 10000 nM (inactive) | > 10000 nM (inactive) | 6.01 | 6.21 |  |  |  |  |  |  | 
3 | Cc1[nH]nc2c1[C@H](c1ccccc1C(F)(F)F)C1=C(CC(C)(C)CC1=O)N2 | > 10000 nM (inactive) | > 10000 nM (inactive) | > 10000 nM (inactive) |  |  |  |  |  |  | > 10000 nM (inactive) | inactive | inactive

Further molecules by rising pIC50 [3], results first:

Row | IC50 [1] | IC50 ([2]; CDK2/CycA2) | IC50 ([2]; CDK2/CycE1) | pIC50 [3] | pIC50 [4] | pIC50 [1] | pIC50 ([2]; CDK2/CycA2) | pIC50 ([2]; CDK2/CycE1) | pIC50 [5] | IC50 [5] | IC50 [3] | IC50 [4] | SMILES
4 | inactive | inactive |  | 7.84 | 7.57 |  |  | 6.09 | 6.65 |  |  |  | Cc1[nH]nc2c1C(c1ccccc1C(F)(F)F)C1=C(CC(C)(C)CC1=O)N2 (stereo not drawn)
5 | > 10000 nM (inactive) | inactive | inactive | 7.88 | 7.91 |  |  |  |  |  |  |  | COc1ccccc1[C@@H]1C2=C(CC(C)(C)CC2=O)Nc2n[nH]c(C(F)(F)F)c21
6 |  |  |  | 8.11 | 7.81 | 6.08 | 6.25 | 6.37 | 6.90 |  |  |  | Cc1[nH]nc2c1[C@@H](c1ccccc1C(F)(F)F)C1=C(CC(C)(C)CC1=O)N2
